{"source": "patent US10208059B2", "about": "“Heterocyclic modulators of HIF activity for treatment of disease” (Board of Regents, University of Texas System, priority 2012, dated 2019)", "note": "Structures can show the parent of a compound that is named as a salt."}
{"tested_on": "293T-HRE-GFP-luc cells", "experiment": "Cell-based reporter assay for IC50 determinations", "details": "hypoxia 6 hrs (1% O2), luminescence, read-out: IC50 Classification", "description": "Cell-Based Reporter Assay for IC50 Determinations\n293T-HRE-GFP-luc cells were routinely maintained in DMEM media (high glucose version with GlutaMAX and HEPES, Gibco, catalog #10564) supplemented with 10% fetal bovine serum and 2 μg/mL puromycin (Invitrogen, catalog #A11138-03) using a humidified incubator (normoxia conditions consisting of 37° C., 5% CO2 and ambient O2).\nIn preparation for the reporter assay, cells were harvested and resuspended in DMEM media (high glucose version with GlutaMAX and HEPES) supplemented with 10% fetal bovine serum. Cells were inoculated into 384-well white Culturplates (Perkin Elmer catalog #6007680) at a density of 12,000 cells/well in a volume of 30 μL. The microplates were incubated overnight (approximately 17-19 hours) at 37° C. with 5% CO2 and ambient O2. Stock solutions of the test compounds were prepared in DMSO (Sigma, Catalog #D2650) and serially diluted 1:3 using DMSO. Compounds were additionally diluted (1:50) with culturemedium and 10 μL were added per well to the Culturplate. Following a 30 min. incubation under normoxia conditions, the plates were incubated in hypoxia for 6 hrs. (37° C., 5% CO2 and 1% O2). Steadylite Plus (Perkin Elmer, catalog #6016751) was then added (40 μL/well), the plates were mixed on an orbital shaker at room temperature in the dark for 15 min., and luminescence was measured using an Envision plate reader (Perkin Elmer). IC50 values were calculated using a four-parameter logistic curve fit. Results are shown below in Table 2; ND indicates no data.", "units": {"IC50": "nM"}}
{"smiles": "Cc1nc(-c2nc(-c3ccc(OC(F)(F)F)cc3)no2)nn1Cc1cccc(C(=O)NCCN(C)C)c1", "note": "[Example 30, N-(2-(Dimethylamino)ethyl)-3-((5-methyl-3-(3-(4-(trifluoromethoxy)phenyl)-1,2,4-oxadiazol-5-yl)-1H-1,2,4-triazol-1-yl)methyl)benzamide]", "IC50": "< 100"}
{"smiles": "Cc1nc(-c2nc(-c3ccc(OC(F)(F)F)cc3)no2)nn1Cc1ccnc(N2CCC(C)(C)CC2)c1", "note": "[Example 31, 5-(1-((2-(4,4-Dimethylpiperidin-1-yl)pyridin-4-yl)methyl)-5-methyl-1H-1,2,4-triazol-3-yl)-3-(4-(trifluoromethoxy)phenyl)-1,2,4-oxadiazole]", "IC50": "< 100"}
{"smiles": "COCCCNc1cc(Cn2nc(-c3nc(-c4ccc(OC(F)(F)F)cc4)no3)nc2C)ccn1", "note": "[Example 32, N-(3-Methoxypropyl)-4-((5-methyl-3-(3-(4-(trifluoromethoxy)phenyl)-1,2,4-oxadiazol-5-yl)-1H-1,2,4-triazol-1-yl)methyl)pyridin-2-amine]", "IC50": "< 100"}
{"smiles": "CCc1nc(-c2nc(-c3ccc(OC(F)(F)F)cc3)no2)nn1Cc1ccccc1", "note": "[Example 33, 5-(1-Benzyl-5-ethyl-1H-1,2,4-triazol-3-yl)-3-(4-(trifluoromethoxy)phenyl)-1,2,4-oxadiazole]", "IC50": "1000 to 10000"}
{"smiles": "FC(F)(F)Oc1ccc(-c2noc(-c3nc(C4CC4)n(Cc4ccccc4)n3)n2)cc1", "note": "[Example 34, 5-(1-Benzyl-5-cyclopropyl-1H-1,2,4-triazol-3-yl)-3-(4-(trifluoromethoxy)phenyl)-1,2,4-oxadiazole]", "IC50": "1000 to 10000"}
{"smiles": "Cc1nc(-c2nc(-c3ccc(OC(F)(F)F)cc3)no2)nn1Cc1ccnc(NCCN2CCOCC2)c1", "note": "[Example 35, 4-((5-Methyl-3-(3-(4-(trifluoromethoxy)phenyl)-1,2,4-oxadiazol-5-yl)-1H-1,2,4-triazol-1-yl)methyl)-N-(2-morpholinoethyl)pyridin-2-amine]", "IC50": "< 100"}
{"smiles": "CNc1cc(Cn2nc(-c3nc(-c4ccc(OC(F)(F)F)cc4)no3)nc2C)ccn1", "note": "[Example 36, N-Methyl-4-((5-methyl-3-(3-(4-(trifluoromethoxy)phenyl)-1,2,4-oxadiazol-5-yl)-1H-1,2,4-triazol-1-yl)methyl)pyridin-2-amine]", "IC50": "< 100"}
{"smiles": "Cc1nc(-c2nc(-c3ccc(OC(F)(F)F)cc3)no2)nn1Cc1ccnc(N(C)C)c1", "note": "[Example 37, N,N-Dimethyl-4-((5-methyl-3-(3-(4-(trifluoromethoxy)phenyl)-1,2,4-oxadiazol-5-yl)-1H-1,2,4-triazol-1-yl)methyl)pyridin-2-amine]", "IC50": "< 100"}
{"smiles": "CC(=O)N1CCN(c2cc(Cn3nc(-c4nc(-c5ccc(OC(F)(F)F)cc5)no4)nc3C)ccn2)CC1", "note": "[Example 38, 1-(4-(4-((5-Methyl-3-(3-(4-(trifluoromethoxy)phenyl)-1,2,4-oxadiazol-5-yl)-1H-1,2,4-triazol-1-yl)methyl)pyridin-2-yl)piperazin-1-yl)ethanone]", "IC50": "< 100"}
{"smiles": "Cc1nc(-c2nc(-c3ccc(OC(F)(F)F)cc3)no2)nn1Cc1cccc(C(=O)NCCO)c1", "note": "[Example 39, N-(2-Hydroxyethyl)-3-((5-methyl-3-(3-(4-(trifluoromethoxy)phenyl)-1,2,4-oxadiazol-5-yl)-1H-1,2,4-triazol-1-yl)methyl)benzamide]", "IC50": "100 to 1000"}
{"smiles": "Cc1nc(-c2nc(-c3ccc(OC(F)(F)F)cc3)no2)nn1Cc1cccc(C(=O)N(C)C)c1", "note": "[Example 40, N,N-Dimethyl-3-((5-methyl-3-(3-(4-(trifluoromethoxy)phenyl)-1,2,4-oxadiazol-5-yl)-1H-1,2,4-triazol-1-yl)methyl)benzamide]", "IC50": "< 100"}
{"smiles": "COCCCNC(=O)c1ccc(Cn2nc(-c3nc(-c4ccc(OC(F)(F)F)cc4)no3)nc2C)cc1", "note": "[Example 41, N-(3-Methoxypropyl)-4-((5-methyl-3-(3-(4-(trifluoromethoxy)phenyl)-1,2,4-oxadiazol-5-yl)-1H-1,2,4-triazol-1-yl)methyl)benzamide]", "IC50": "100 to 1000"}
{"smiles": "Cc1nc(-c2nc(-c3ccc(OC(F)(F)F)cc3)no2)nn1Cc1ccc(C(=O)N2CCN(C)CC2)cc1", "note": "[Example 42, (4-((5-Methyl-3-(3-(4-(trifluoromethoxy)phenyl)-1,2,4-oxadiazol-5-yl)-1H-1,2,4-triazol-1-yl)methyl)phenyl)(4-methylpiperazin-1-yl)methanone]", "IC50": "100 to 1000"}
{"smiles": "Cc1nc(-c2nc(-c3ccc(OC(F)(F)F)cc3)no2)nn1Cc1ccnc(N2CCS(=O)(=O)CC2)c1", "note": "[Example 43, 2-(1,1-Dioxidothiomorpholino)-4-((5-methyl-3-(3-(4-(trifluoromethoxy)phenyl)-1,2,4-oxadiazol-5-yl)-1H-1,2,4-triazol-1-yl)methyl)pyridin-1-ium trifluoroacetate]", "IC50": "100 to 1000"}
{"smiles": "Cc1nc(-c2nc(-c3ccc(OC(F)(F)F)cc3)no2)nn1Cc1cccc(N2CCOCC2)c1", "note": "[Example 44, 4-(3-((5-Methyl-3-(3-(4-(trifluoromethoxy)phenyl)-1,2,4-oxadiazol-5-yl)-1H-1,2,4-triazol-1-yl)methyl)phenyl)morpholine]", "IC50": "< 100"}
{"smiles": "Cc1nc(-c2nc(-c3ccc(OC(F)(F)F)cc3)no2)nn1Cc1ccnc(NCCN(C)C)c1", "note": "[Example 45, N1,N1-Dimethyl-N2-(4-((5-methyl-3-(3-(4-(trifluoromethoxy)phenyl)-1,2,4-oxadiazol-5-yl)-1H-1,2,4-triazol-1-yl)methyl)pyridin-2-yl)ethane-1,2-diamine]", "IC50": "1000 to 10000"}
{"smiles": "Cc1nc(-c2nc(-c3ccc(OC(F)(F)F)cc3)no2)nn1Cc1ccnc(NCCN2CCCC2)c1", "note": "[Example 46, 4-((5-Methyl-3-(3-(4-(trifluoromethoxy)phenyl)-1,2,4-oxadiazol-5-yl)-1H-1,2,4-triazol-1-yl)methyl)-N-(2-(pyrrolidin-1-yl)ethyl)pyridin-2-amine]", "IC50": "1000 to 10000"}
{"smiles": "Cc1nc(-c2nc(-c3ccc(OC(F)(F)F)cc3)no2)nn1Cc1ccc(Cl)s1", "note": "[Example 47, 5-(1-((5-Chlorothiophen-2-yl)methyl)-5-methyl-1H-1,2,4-triazol-3-yl)-3-(4-(trifluoromethoxy)phenyl)-1,2,4-oxadiazole]", "IC50": "100 to 1000"}
{"smiles": "Cc1cc(Cn2nc(-c3nc(-c4ccc(OC(F)(F)F)cc4)no3)nc2C)n(C)n1", "note": "[Example 48, 5-(1-((1,3-Dimethyl-1H-pyrazol-5-yl)methyl)-5-methyl-1H-1,2,4-triazol-3-yl)-3-(4-(trifluoromethoxy)phenyl)-1,2,4-oxadiazole]", "IC50": "100 to 1000"}
{"smiles": "Cc1nc(-c2nc(-c3ccc(OC(F)(F)F)cc3)no2)nn1Cc1cc(=O)n2ccsc2n1", "note": "[Example 49, 7-((5-Methyl-3-(3-(4-(trifluoromethoxy)phenyl)-1,2,4-oxadiazol-5-yl)-1H-1,2,4-triazol-1-yl)methyl)-5H-thiazolo[3,2-a]pyrimidin-5-one]", "IC50": "100 to 1000"}
{"smiles": "Cc1nc(-c2nc(-c3ccc(OC(F)(F)F)cc3)no2)nn1Cc1cccc(N2CCCC2)c1", "note": "[Example 50, 5-(5-Methyl-1-(3-(pyrrolidin-1-yl)benzyl)-1H-1,2,4-triazol-3-yl)-3-(4-(trifluoromethoxy)phenyl)-1,2,4-oxadiazole]", "IC50": "100 to 1000"}
{"smiles": "Cc1nc(-c2nc(-c3ccc(OC(F)(F)F)cc3)no2)nn1Cc1cccc(N2CCC(C#N)CC2)c1", "note": "[Example 51, 1-(3-((5-Methyl-3-(3-(4-(trifluoromethoxy)phenyl)-1,2,4-oxadiazol-5-yl)-1H-1,2,4-triazol-1-yl)methyl)phenyl)piperidine-4-carbonitrile]", "IC50": "< 100"}
{"smiles": "Cc1nc(-c2nc(-c3ccc(OC(F)(F)F)cc3)no2)nn1Cc1cccc(N(C)C)c1", "note": "[Example 52, N,N-Dimethyl-3-((5-methyl-3-(3-(4-(trifluoromethoxy)phenyl)-1,2,4-oxadiazol-5-yl)-1H-1,2,4-triazol-1-yl)methyl)aniline]", "IC50": "< 100"}
{"smiles": "COCCCNc1cccc(Cn2nc(-c3nc(-c4ccc(OC(F)(F)F)cc4)no3)nc2C)c1", "note": "[Example 53, N-(3-Methoxypropyl)-3-((5-methyl-3-(3-(4-(trifluoromethoxy)phenyl)-1,2,4-oxadiazol-5-yl)-1H-1,2,4-triazol-1-yl)methyl)aniline]", "IC50": "< 100"}
{"smiles": "Cc1nc(-c2nc(-c3ccc(OC(F)(F)F)cc3)no2)nn1Cc1cnccn1", "note": "[Example 54, 5-(5-Methyl-1-(pyrazin-2-ylmethyl)-1H-1,2,4-triazol-3-yl)-3-(4-(trifluoromethoxy)phenyl)-1,2,4-oxadiazole]", "IC50": "1000 to 10000"}
{"smiles": "Cc1nc(-c2nc(-c3ccc(OC(F)(F)F)cc3)no2)nn1Cc1ccnc(N2CCOCC2)n1", "note": "[Example 55, 4-(4-((5-Methyl-3-(3-(4-(trifluoromethoxy)phenyl)-1,2,4-oxadiazol-5-yl)-1H-1,2,4-triazol-1-yl)methyl)pyrimidin-2-yl)morpholine]", "IC50": "< 100"}
{"smiles": "Cc1nc(-c2noc(-c3ccc(OC(F)(F)F)cc3)n2)nn1Cc1cccc(N2CCN(C)CC2)c1", "note": "[Example 56, 3-(5-Methyl-1-(3-(4-methylpiperazin-1-yl)benzyl)-1H-1,2,4-triazol-3-yl)-5-(4-(trifluoromethoxy)phenyl)-1,2,4-oxadiazole]", "IC50": "< 100"}
{"smiles": "Cc1nc(-c2noc(-c3ccc(OC(F)(F)F)cc3)n2)nn1Cc1cccc(N2CCOCC2)c1", "note": "[Example 57, 4-(3-((5-Methyl-3-(5-(4-(trifluoromethoxy)phenyl)-1,2,4-oxadiazol-3-yl)-1H-1,2,4-triazol-1-yl)methyl)phenyl)morpholine]", "IC50": "< 100"}
